# Assay results: the supplement of paper PMC10307832
# What was measured:
# Assay in all cases: relative viability (nuclei count vs DMSO), 5 days (fraction); higher = more cells survive
# [1] = system: NCI-H441
# Method in brief: (§1)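 Cells from lung cancer lines were seeded into 1536-well plates and, one day later, dosed by pin tool. Treatments were either a single drug or a fixed dose of an anchor drug with five library-drug doses (not always all listed) in √10 steps. After 5 days, nuclei were stained in a one-step fixation (final 0.05% Triton X-100, 1% formaldehyde, 1 ug/ml Hoechst) and counted on 4× images, and relative viability is the treated-to-vehicle nuclei ratio, as the median of duplicate plates.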
# [2] = system: NCI-H1355
# Method in brief: as §1
# [3] = system: NCI-H1975
# Method in brief: as §1
# [4] = system: LOU-NH91
# Method in brief: as §1
# [5] = system: HCC-366
# Method in brief: as §1
# [6] = system: NCI-H838
# Method in brief: as §1
# [7] = system: NCI-H2023
# Method in brief: as §1
# [8] = system: NCI-H1734
# Method in brief: as §1
# [9] = system: COR-L23
# Method in brief: as §1
# [10] = system: LU99A
# Method in brief: as §1
# [11] = system: NCI-H460
# Method in brief: as §1
# [12] = system: NCI-H1793
# Method in brief: as §1
# [13] = system: CAL-12T
# Method in brief: as §1
# [14] = system: NCI-H1650
# Method in brief: as §1
# [15] = system: NCI-H1651
# Method in brief: as §1
# [16] = system: BEN
# Method in brief: as §1
# [17] = system: SK-LU-1
# Method in brief: as §1
# [18] = system: NCI-H1437
# Method in brief: as §1
# [19] = system: NCI-H2085
# Method in brief: as §1
structure (smiles),measurement,setting,value
Nc1ccn([C@@H]2O[C@H](CO)[C@@H](O)[C@@H]2O)c(=O)n1 [Cytarabine] + CC1(C)CCC(c2ccc(Cl)cc2)=C(CN2CCN(c3ccc(C(=O)NS(=O)(=O)c4ccc(N[C@H](CCN5CCOCC5)CSc5ccccc5)c(S(=O)(=O)C(F)(F)F)c4)cc3)CC2)C1 [Navitoclax] (partner 0.5 µM),relative viability,[1]; first compound 0.005 µM,0.547
same,relative viability,[1]; first compound 0.01581 µM,0.648
same,relative viability,[1]; first compound 0.05 µM,0.556
same,relative viability,[1]; first compound 0.1581 µM,0.176
same,relative viability,[1]; first compound 0.5 µM,0.161
same,relative viability,[2]; first compound 0.005 µM,0.897
same,relative viability,[2]; first compound 0.01581 µM,0.811
same,relative viability,[2]; first compound 0.05 µM,0.819
same,relative viability,[2]; first compound 0.1581 µM,0.325
same,relative viability,[2]; first compound 0.5 µM,0.203
same,relative viability,[3]; first compound 0.005 µM,0.944
same,relative viability,[3]; first compound 0.01581 µM,1.26
same,relative viability,[3]; first compound 0.05 µM,1.1
same,relative viability,[3]; first compound 0.1581 µM,0.567
same,relative viability,[3]; first compound 0.5 µM,0.359
same,relative viability,[4]; first compound 0.005 µM,0.693
same,relative viability,[4]; first compound 0.01581 µM,0.606
same,relative viability,[4]; first compound 0.05 µM,0.463
same,relative viability,[4]; first compound 0.1581 µM,0.332
same,relative viability,[4]; first compound 0.5 µM,0.35
same,relative viability,[5]; first compound 0.005 µM,0.889
same,relative viability,[5]; first compound 0.01581 µM,0.918
same,relative viability,[5]; first compound 0.05 µM,0.328
same,relative viability,[5]; first compound 0.1581 µM,0.0444
same,relative viability,[5]; first compound 0.5 µM,0.0177
same,relative viability,[6]; first compound 0.005 µM,1.29
same,relative viability,[6]; first compound 0.01581 µM,1.18
same,relative viability,[6]; first compound 0.05 µM,0.816
same,relative viability,[6]; first compound 0.1581 µM,0.446
same,relative viability,[6]; first compound 0.5 µM,0.262
same,relative viability,[7]; first compound 0.005 µM,0.549
same,relative viability,[7]; first compound 0.01581 µM,0.356
same,relative viability,[7]; first compound 0.05 µM,0.195
same,relative viability,[7]; first compound 0.1581 µM,0.108
same,relative viability,[7]; first compound 0.5 µM,0.103
same,relative viability,[8]; first compound 0.005 µM,0.418
same,relative viability,[8]; first compound 0.01581 µM,0.322
same,relative viability,[8]; first compound 0.05 µM,0.197
same,relative viability,[8]; first compound 0.1581 µM,0.142
same,relative viability,[8]; first compound 0.5 µM,0.126
same,relative viability,[9]; first compound 0.005 µM,0.944
same,relative viability,[9]; first compound 0.01581 µM,0.842
same,relative viability,[9]; first compound 0.05 µM,0.555
same,relative viability,[9]; first compound 0.1581 µM,0.168
same,relative viability,[9]; first compound 0.5 µM,0.129
same,relative viability,[10]; first compound 0.005 µM,0.906
same,relative viability,[10]; first compound 0.01581 µM,0.826
same,relative viability,[10]; first compound 0.05 µM,0.771
same,relative viability,[10]; first compound 0.1581 µM,0.726
same,relative viability,[10]; first compound 0.5 µM,0.56
same,relative viability,[11]; first compound 0.005 µM,1.06
same,relative viability,[11]; first compound 0.01581 µM,1.16
same,relative viability,[11]; first compound 0.05 µM,0.323
same,relative viability,[11]; first compound 0.1581 µM,0.0167
same,relative viability,[11]; first compound 0.5 µM,0.0173
same,relative viability,[12]; first compound 0.005 µM,0.273
same,relative viability,[12]; first compound 0.01581 µM,0.333
same,relative viability,[12]; first compound 0.05 µM,0.271
same,relative viability,[12]; first compound 0.1581 µM,0.261
same,relative viability,[12]; first compound 0.5 µM,0.244
same,relative viability,[13]; first compound 0.005 µM,1.24
same,relative viability,[13]; first compound 0.01581 µM,1.4
same,relative viability,[13]; first compound 0.05 µM,1.13
same,relative viability,[13]; first compound 0.1581 µM,0.598
same,relative viability,[13]; first compound 0.5 µM,0.244
same,relative viability,[14]; first compound 0.005 µM,1.11
same,relative viability,[14]; first compound 0.01581 µM,1.24
same,relative viability,[14]; first compound 0.05 µM,0.616
same,relative viability,[14]; first compound 0.1581 µM,0.355
same,relative viability,[14]; first compound 0.5 µM,0.18
same,relative viability,[15]; first compound 0.005 µM,0.993
same,relative viability,[15]; first compound 0.01581 µM,1.18
same,relative viability,[15]; first compound 0.05 µM,1.24
same,relative viability,[15]; first compound 0.1581 µM,0.625
same,relative viability,[15]; first compound 0.5 µM,0.3
same,relative viability,[16]; first compound 0.005 µM,0.059
same,relative viability,[16]; first compound 0.01581 µM,0.0619
same,relative viability,[16]; first compound 0.05 µM,0.159
same,relative viability,[16]; first compound 0.1581 µM,0.0433
same,relative viability,[16]; first compound 0.5 µM,0.0457
same,relative viability,[17]; first compound 0.005 µM,0.775
same,relative viability,[17]; first compound 0.01581 µM,0.703
same,relative viability,[17]; first compound 0.05 µM,0.34
same,relative viability,[17]; first compound 0.1581 µM,0.266
same,relative viability,[17]; first compound 0.5 µM,0.179
same,relative viability,[18]; first compound 0.005 µM,0.875
same,relative viability,[18]; first compound 0.01581 µM,0.637
same,relative viability,[18]; first compound 0.05 µM,0.469
same,relative viability,[18]; first compound 0.1581 µM,0.214
same,relative viability,[18]; first compound 0.5 µM,0.175
same,relative viability,[19]; first compound 0.005 µM,1.15
same,relative viability,[19]; first compound 0.01581 µM,1.08
same,relative viability,[19]; first compound 0.05 µM,1.02
same,relative viability,[19]; first compound 0.1581 µM,0.731
same,relative viability,[19]; first compound 0.5 µM,0.728
